EP0091090A2, “Bipyridine substituted imidazolidene copper complex and its use in food-producing animals, and bipyridine, 2,2'-(2-imidazolidinylidene) di-copper complex and use in animals” (INTERNATIONAL MINERALS & CHEMICAL CORPORATION, priority 1982, dated 1983)

Test system: rumen fluid batch culture
Assay: Rumen fluid batch culture test: volatile fatty acid, gas (CH4 + H2), protein and amino acid accumulation (Example 2)
Format: cell-based, steers
Design: HFo (formate) / HAc (acetate) / HPr (propionate) / HiBu (isobutyrate) / HBu (butyrate) / HiVal (isovalerate) / Total / Caloric Value of H2 / Caloric Value of HFo / Caloric Value of HAc / Caloric Value of HPr / Caloric Value of HiBu / Caloric Value of HBu / Caloric Value of HiVal / Caloric Value of CH3: unit not given here
Description: The above Formula IV composition was tested to determine its effectiveness as a feed additive for ruminants. The initial tests were in rumen fluid batch culture systems to determine the effect of the compound on volatile fatty acid/methane ratios (VFA/CH4). […] Test Procedure: A 50/50 mixture of ground corn and ground alfalfa was used as the substrate for the subject rumen fluid batch culture test. The compound (Formula IV ) was present in the rumen fluid in three separate test samples at 8.33, 25 and 75 ppm, respectively. On day 1, rumen fluid was obtained from mature fistulated steers on 50/50 concentrate/roughage diets. The rumen fluid (RF) was strained through three layers of gauze cloth and equilibrated with C02 gas. Wheaton serum vials (125 ml) were prepared ahead with 20 ml continuous batch buffer and 100 mg 50/50 ground corn/ground alfalfa. Controls and compounds (dissolved in acetone) were set up according to desired levels. The vials were kept under C02 gas until 20 ml of the strained RF was added. The vials were sealed and incubated at 39°C for 24 hours in a hot water bath. On successive days, gas samples (0.1 ml) were drawn for gas chromatography analysis before transferring 20 ml of the batch culture to another vial containing 20 ml of buffer, 100 mg substrate, and the corresponding compound. The remaining 20 ml was inoculated with 2 ml 6N HC1 and centrifuged at 15,000 rpm for 15 minutes. Ether extracts were prepared for volatile fatty acid (VFA) analysis. Some minor adjustments were made in the termperatures on the Hewlett-Packard 5750 Gas-Liquid Chromatograph used for VFA analysis when the glass column used was changed from 1/4 inch diameter to 1/8 inch diameter. Injection Port = 220°C Column Oven = 170°C Flame Detector = 250°C Only 4 minutes was needed to record the sample instead of the previous 7 minutes.

[1] = 8.33 μg/ml, total produced on Day 10

Substance: 2,2'-(4,5-diphenyl-2H-imidazol-2-ylidene)bispyridine with CuCl2(1/1) [Formula IV Compound]
- AA (8.33 µg/ml, day 2): 0.16 µmol/mL
- CH4 (8.33 µg/ml, day 2): 204 µ Moles
- H2 (8.33 µg/ml, day 2): 0 µ Moles
- HAc (acetate) (8.33 µg/ml, day 2): 43.83
- HBu (butyrate) (8.33 µg/ml, day 2): 12.33
- HFo (formate) (8.33 µg/ml, day 2): 1.48
- HPr (propionate) (8.33 µg/ml, day 2): 11.81
- HiBu (isobutyrate) (8.33 µg/ml, day 2): 1.27
- HiVal (isovalerate) (8.33 µg/ml, day 2): 0
- Protein (8.33 µg/ml, day 2): 0 mg/mL
- Total (8.33 µg/ml, day 2): 70.71
- AA (8.33 µg/ml, day 3): 0.13 µmol/mL
- CH4 (8.33 µg/ml, day 3): 157 µ Moles
- H2 (8.33 µg/ml, day 3): 0 µ Moles
- HAc (acetate) (8.33 µg/ml, day 3): 33.35
- HBu (butyrate) (8.33 µg/ml, day 3): 9.87
- HFo (formate) (8.33 µg/ml, day 3): 0.92
- HPr (propionate) (8.33 µg/ml, day 3): 12.17
- HiBu (isobutyrate) (8.33 µg/ml, day 3): 1.14
- HiVal (isovalerate) (8.33 µg/ml, day 3): 1.14
- Protein (8.33 µg/ml, day 3): 0 mg/mL
- Total (8.33 µg/ml, day 3): 58.58
- CH4 (8.33 µg/ml, day 4): 164 µ Moles
- H2 (8.33 µg/ml, day 4): 0 µ Moles
- HAc (acetate) (8.33 µg/ml, day 4): 34.54
- HBu (butyrate) (8.33 µg/ml, day 4): 7.77
- HFo (formate) (8.33 µg/ml, day 4): 0.40
- HPr (propionate) (8.33 µg/ml, day 4): 13.16
- HiBu (isobutyrate) (8.33 µg/ml, day 4): 0.68
- HiVal (isovalerate) (8.33 µg/ml, day 4): 2.01
- Total (8.33 µg/ml, day 4): 58.54
- CH4 (8.33 µg/ml, day 5): 181 µ Moles
- H2 (8.33 µg/ml, day 5): 0 µ Moles
- HAc (acetate) (8.33 µg/ml, day 5): 33.15
- HBu (butyrate) (8.33 µg/ml, day 5): 7.14
- HFo (formate) (8.33 µg/ml, day 5): 0.30
- HPr (propionate) (8.33 µg/ml, day 5): 12.66
- HiBu (isobutyrate) (8.33 µg/ml, day 5): 0.35
- HiVal (isovalerate) (8.33 µg/ml, day 5): 1.17
- Total (8.33 µg/ml, day 5): 54.76
- AA (8.33 µg/ml, day 6): 0.11 µmol/mL
- CH4 (8.33 µg/ml, day 6): 176 µ Moles
- H2 (8.33 µg/ml, day 6): 0 µ Moles
- HAc (acetate) (8.33 µg/ml, day 6): 29.32
- HBu (butyrate) (8.33 µg/ml, day 6): 5.69
- HFo (formate) (8.33 µg/ml, day 6): 1.02
- HPr (propionate) (8.33 µg/ml, day 6): 11.08
- HiBu (isobutyrate) (8.33 µg/ml, day 6): 0.46
- HiVal (isovalerate) (8.33 µg/ml, day 6): 0
- Protein (8.33 µg/ml, day 6): 0 mg/mL
- Total (8.33 µg/ml, day 6): 47.57
- AA (8.33 µg/ml, day 7): 0.11 µmol/mL
- CH4 (8.33 µg/ml, day 7): 139 µ Moles
- H2 (8.33 µg/ml, day 7): 0 µ Moles
- HAc (acetate) (8.33 µg/ml, day 7): 29.53
- HBu (butyrate) (8.33 µg/ml, day 7): 4.39
- HFo (formate) (8.33 µg/ml, day 7): 0.73
- HPr (propionate) (8.33 µg/ml, day 7): 13.12
- HiBu (isobutyrate) (8.33 µg/ml, day 7): 0.76
- HiVal (isovalerate) (8.33 µg/ml, day 7): 0.77
- Protein (8.33 µg/ml, day 7): 0 mg/mL
- Total (8.33 µg/ml, day 7): 49.29
- AA (8.33 µg/ml, day 8): 0.09 µmol/mL
- CH4 (8.33 µg/ml, day 8): 158 µ Moles
- H2 (8.33 µg/ml, day 8): 0 µ Moles
- HAc (acetate) (8.33 µg/ml, day 8): 26.19
- HBu (butyrate) (8.33 µg/ml, day 8): 5.49
- HFo (formate) (8.33 µg/ml, day 8): 0.55
- HPr (propionate) (8.33 µg/ml, day 8): 13.48
- HiBu (isobutyrate) (8.33 µg/ml, day 8): 0.65
- HiVal (isovalerate) (8.33 µg/ml, day 8): 2.20
- Protein (8.33 µg/ml, day 8): 0 mg/mL
- Total (8.33 µg/ml, day 8): 48.55
- AA (8.33 µg/ml, day 9): 0.10 µmol/mL
- CH4 (8.33 µg/ml, day 9): 157 µ Moles
- H2 (8.33 µg/ml, day 9): 0 µ Moles
- HAc (acetate) (8.33 µg/ml, day 9): 27.31
- HBu (butyrate) (8.33 µg/ml, day 9): 3.06
- HFo (formate) (8.33 µg/ml, day 9): 0.50
- HPr (propionate) (8.33 µg/ml, day 9): 13.73
- HiBu (isobutyrate) (8.33 µg/ml, day 9): 0.58
- HiVal (isovalerate) (8.33 µg/ml, day 9): 0.55
- Protein (8.33 µg/ml, day 9): 0 mg/mL
- Total (8.33 µg/ml, day 9): 45.71
- AA (8.33 µg/ml, day 10): 0.24 µmol/mL
- CH4 (8.33 µg/ml, day 10): 159 µ Moles
- H2 (8.33 µg/ml, day 10): 0 µ Moles
- HAc (acetate) (8.33 µg/ml, day 10): 24.52
- HBu (butyrate) (8.33 µg/ml, day 10): 2.56
- HFo (formate) (8.33 µg/ml, day 10): 0.23
- HPr (propionate) (8.33 µg/ml, day 10): 12.89
- HiBu (isobutyrate) (8.33 µg/ml, day 10): 0.21
- HiVal (isovalerate) (8.33 µg/ml, day 10): 0.05
- Protein (8.33 µg/ml, day 10): 0 mg/mL
- Total (8.33 µg/ml, day 10): 40.45
- Caloric Value of CH3 (8.33 µg/ml, produced on Day 10): 33.54
- Caloric Value of H2 (8.33 µg/ml, produced on Day 10): 0
- Caloric Value of HAc (8.33 µg/ml, produced on Day 10): 90.96
- Caloric Value of HBu (8.33 µg/ml, produced on Day 10): 21.42
- Caloric Value of HFo (8.33 µg/ml, produced on Day 10): 0
- Caloric Value of HPr (8.33 µg/ml, produced on Day 10): 87.89
- Caloric Value of HiBu (8.33 µg/ml, produced on Day 10): 0
- Caloric Value of HiVal (8.33 µg/ml, produced on Day 10): 0
- Caloric Value, Total (VFA's) (8.33 µg/ml, produced on Day 10): 200.27
- Total Cal in VFA & Gas (8.33 µg/ml, produced on Day 10): 233.79 cal
- CH4 produced on Day 10 [1]: 159
- H2 produced on Day 10 [1]: 0
- HAc (acetate) produced on Day 10 [1]: 434.4
- HBu (butyrate) produced on Day 10 [1]: 41.2
- HFo (formate) produced on Day 10 [1]: 0
- HPr (propionate) produced on Day 10 [1]: 240.8
- HiBu (isobutyrate) produced on Day 10 [1]: 0
- HiVal (isovalerate) produced on Day 10 [1]: 0
- Total VFA's produced on Day 10 [1]: 716.4
- methane production (25 µg/ml, by day 10): seemed to be recovering
- AA (25 µg/ml, day 2): 0.16 µ Moles/ml
- CH4 (25 µg/ml, day 2): 197 µ Moles
- H2 (25 µg/ml, day 2): 0 µ Moles
- HAc (acetate) (25 µg/ml, day 2): 46.39
- HBu (butyrate) (25 µg/ml, day 2): 10.94
- HFo (formate) (25 µg/ml, day 2): 1.24
- HPr (propionate) (25 µg/ml, day 2): 12.69
- HiBu (isobutyrate) (25 µg/ml, day 2): 1.66
- HiVal (isovalerate) (25 µg/ml, day 2): 2.55
- Protein (25 µg/ml, day 2): 0 mg/mL
- Total (25 µg/ml, day 2): 75.45
- AA (25 µg/ml, day 3): 0.17 µ Moles/ml
- CH4 (25 µg/ml, day 3): 166 µ Moles
- H2 (25 µg/ml, day 3): 0 µ Moles
- HAc (acetate) (25 µg/ml, day 3): 35.36
- HBu (butyrate) (25 µg/ml, day 3): 7.27
- HFo (formate) (25 µg/ml, day 3): 1.05
- HPr (propionate) (25 µg/ml, day 3): 12.93
- HiBu (isobutyrate) (25 µg/ml, day 3): 1.21
- HiVal (isovalerate) (25 µg/ml, day 3): 0.59
- Protein (25 µg/ml, day 3): 0 mg/mL
- Total (25 µg/ml, day 3): 58.40
- CH4 (25 µg/ml, day 4): 164 µ Moles
- H2 (25 µg/ml, day 4): 0 µ Moles
- HAc (acetate) (25 µg/ml, day 4): 36.52
- HBu (butyrate) (25 µg/ml, day 4): 6.38
- HFo (formate) (25 µg/ml, day 4): 0.71
- HPr (propionate) (25 µg/ml, day 4): 14.32
- HiBu (isobutyrate) (25 µg/ml, day 4): 0.86
- HiVal (isovalerate) (25 µg/ml, day 4): 1.33
- Total (25 µg/ml, day 4): 60.11
- CH4 (25 µg/ml, day 5): 170 µ Moles
- H2 (25 µg/ml, day 5): 0 µ Moles
- HAc (acetate) (25 µg/ml, day 5): 34.06
- HBu (butyrate) (25 µg/ml, day 5): 6.63
- HFo (formate) (25 µg/ml, day 5): 0.44
- HPr (propionate) (25 µg/ml, day 5): 14.87
- HiBu (isobutyrate) (25 µg/ml, day 5): 0.56
- HiVal (isovalerate) (25 µg/ml, day 5): 0.78
- Total (25 µg/ml, day 5): 57.33
- AA (25 µg/ml, day 6): 0.11 µ Moles/ml
- CH4 (25 µg/ml, day 6): 143 µ Moles
- H2 (25 µg/ml, day 6): 0 µ Moles
- HAc (acetate) (25 µg/ml, day 6): 28.98
- HBu (butyrate) (25 µg/ml, day 6): 4.26
- HFo (formate) (25 µg/ml, day 6): 0.68
- HPr (propionate) (25 µg/ml, day 6): 13.87
- HiBu (isobutyrate) (25 µg/ml, day 6): 0.53
- HiVal (isovalerate) (25 µg/ml, day 6): 0.20
- Protein (25 µg/ml, day 6): 0.01 mg/mL
- Total (25 µg/ml, day 6): 48.49
- AA (25 µg/ml, day 7): 0.24 µ Moles/ml
- CH4 (25 µg/ml, day 7): 58 µ Moles
- H2 (25 µg/ml, day 7): 8 µ Moles
- HAc (acetate) (25 µg/ml, day 7): 22.54
- HBu (butyrate) (25 µg/ml, day 7): 5.02
- HFo (formate) (25 µg/ml, day 7): 0.61
- HPr (propionate) (25 µg/ml, day 7): 13.54
- HiBu (isobutyrate) (25 µg/ml, day 7): 0.75
- HiVal (isovalerate) (25 µg/ml, day 7): 0.51
- Protein (25 µg/ml, day 7): 0 mg/mL
- Total (25 µg/ml, day 7): 42.95
- AA (25 µg/ml, day 8): 0.22 µ Moles/ml
